pIC50: −log10 of the molar value.
Molecular target: T1, DNA gyrase subunit B (GyrB) (Mycobacteroides abscessus, UniProt B1ME45)
T1 construct: recombinant M. abscessus ATCC 19977 DNA gyrase (A2B2 heterotetramer); with DNA gyrase subunit A (GyrA)
Assay: DNA supercoiling inhibition assay (relaxed pBR322, agarose gel)
Assay type: biochemical

T1 sequence (B1ME45 entry or part of it): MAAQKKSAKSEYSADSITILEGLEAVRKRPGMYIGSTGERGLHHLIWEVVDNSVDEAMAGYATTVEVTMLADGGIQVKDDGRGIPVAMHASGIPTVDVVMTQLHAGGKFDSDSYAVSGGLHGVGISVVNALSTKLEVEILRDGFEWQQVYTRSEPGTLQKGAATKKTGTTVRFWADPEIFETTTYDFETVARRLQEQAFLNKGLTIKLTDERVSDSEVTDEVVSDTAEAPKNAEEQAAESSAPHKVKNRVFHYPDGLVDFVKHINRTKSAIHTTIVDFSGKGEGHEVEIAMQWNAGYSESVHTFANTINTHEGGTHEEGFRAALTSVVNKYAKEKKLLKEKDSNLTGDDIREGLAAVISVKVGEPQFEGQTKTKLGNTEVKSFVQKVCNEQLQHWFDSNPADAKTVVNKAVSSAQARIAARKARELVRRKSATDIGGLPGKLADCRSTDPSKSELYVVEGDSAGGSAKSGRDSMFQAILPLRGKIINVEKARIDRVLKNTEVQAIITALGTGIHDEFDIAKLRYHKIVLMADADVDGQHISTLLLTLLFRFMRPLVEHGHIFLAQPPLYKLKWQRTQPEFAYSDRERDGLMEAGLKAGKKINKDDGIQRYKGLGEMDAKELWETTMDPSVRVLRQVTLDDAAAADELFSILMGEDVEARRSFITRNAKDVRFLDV
T1 sequence (B1ME58 entry or part of it, further chain): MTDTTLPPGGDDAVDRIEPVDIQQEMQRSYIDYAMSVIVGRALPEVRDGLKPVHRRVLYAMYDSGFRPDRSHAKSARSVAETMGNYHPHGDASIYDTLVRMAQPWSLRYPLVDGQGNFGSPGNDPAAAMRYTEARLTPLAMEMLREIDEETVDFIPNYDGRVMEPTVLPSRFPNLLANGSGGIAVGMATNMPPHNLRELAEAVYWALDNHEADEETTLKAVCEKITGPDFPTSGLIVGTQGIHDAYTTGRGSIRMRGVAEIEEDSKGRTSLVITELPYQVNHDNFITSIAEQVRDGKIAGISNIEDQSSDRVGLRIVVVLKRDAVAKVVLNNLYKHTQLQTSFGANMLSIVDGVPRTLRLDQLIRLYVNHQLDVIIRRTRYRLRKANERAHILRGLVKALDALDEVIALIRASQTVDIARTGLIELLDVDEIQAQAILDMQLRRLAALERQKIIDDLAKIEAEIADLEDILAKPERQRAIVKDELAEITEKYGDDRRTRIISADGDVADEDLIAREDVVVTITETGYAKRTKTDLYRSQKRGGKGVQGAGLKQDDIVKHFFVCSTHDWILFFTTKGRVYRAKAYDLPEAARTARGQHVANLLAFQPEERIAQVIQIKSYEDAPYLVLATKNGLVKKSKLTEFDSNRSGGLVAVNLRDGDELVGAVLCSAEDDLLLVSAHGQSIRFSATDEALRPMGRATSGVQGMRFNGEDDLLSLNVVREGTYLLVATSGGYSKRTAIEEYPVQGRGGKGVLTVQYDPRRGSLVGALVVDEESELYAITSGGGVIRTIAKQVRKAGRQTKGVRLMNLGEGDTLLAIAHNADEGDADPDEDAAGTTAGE

`CCNC(=O)Nc1nc2cc(-c3cnc(C(C)(C)O)nc3)c(F)c([C@H]3CCCO3)c2[nH]1` [SPR719] showed a pIC50 of 6.00.

Source: article PMC9487482, “Activity of Tricyclic Pyrrolopyrimidine Gyrase B Inhibitor against Mycobacterium abscessus” (Antimicrobial Agents and Chemotherapy, 2022)
